These results are taken from PubChem BioAssay AID1259407 (Chemical Carcinogenesis Research Information System (CCRIS), 2018).

The subject of the series is CCRIS mutagenicity, Ames/micronucleus/aberration tests. The series is described as follows: CCRIS mutagenicity studies.
Where [1] appears, read: Test System: AMES SALMONELLA TYPHIMURIUM, Strain/Indicator: TA98, Metabolic Activation: NONE, Method: STANDARD PLATE.
Setting [2] is: Test System: AMES SALMONELLA TYPHIMURIUM, Strain/Indicator: TA100, Metabolic Activation: NONE, Method: STANDARD PLATE.
Setting [3] is: Test System: AMES SALMONELLA TYPHIMURIUM, Strain/Indicator: TA102, Metabolic Activation: NONE, Method: STANDARD PLATE.
Setting [4] is: Test System: AMES SALMONELLA TYPHIMURIUM, Strain/Indicator: TA98, Metabolic Activation: NONE, Method: PREINCUBATION
[5] abbreviates: Test System: AMES SALMONELLA TYPHIMURIUM, Strain/Indicator: TA100, Metabolic Activation: NONE, Method: PREINCUBATION
Setting [6] is: Test System: AMES SALMONELLA TYPHIMURIUM, Strain/Indicator: TA1535, Metabolic Activation: NONE, Method: PREINCUBATION
Setting [7] is: Test System: AMES SALMONELLA TYPHIMURIUM, Strain/Indicator: TA1537, Metabolic Activation: NONE, Method: PREINCUBATION

Active and inactive are the calls of the source. No rule for the calls is given here.

With `CCC(C)c1ccccc1OC(=O)N(C)N=O` (stereo not given), where the note is “Test System: E. COLI WP2, Strain/Indicator: WP2, Metabolic Activation: NONE, Method: STANDARD PLATE”, the mutagenic call was “active; positive”.
For `C=C(C)C(=O)OCCOCCOCCOC(=O)C(=C)C`, the mutagenic call runs as follows: (Test System: AMES SALMONELLA TYPHIMURIUM, Strain/Indicator: TA97A, Metabolic Activation: NONE, Method: STANDARD PLATE) “inactive; negative”; (Test System: AMES SALMONELLA TYPHIMURIUM, Strain/Indicator: TA97A, Metabolic Activation: RAT, LIVER, S-9, PHENOBARBITAL AND BETA-NAPHTHAFLAVONE, Method: STANDARD PLATE) “inactive; negative”; under setting [1], “inactive; negative”; (Test System: AMES SALMONELLA TYPHIMURIUM, Strain/Indicator: TA98, Metabolic Activation: RAT, LIVER, S-9, PHENOBARBITAL AND BETA-NAPHTHAFLAVONE, Method: STANDARD PLATE) “inactive; negative”; under setting [2], “inactive; negative”; (Test System: AMES SALMONELLA TYPHIMURIUM, Strain/Indicator: TA100, Metabolic Activation: RAT, LIVER, S-9, PHENOBARBITAL AND BETA-NAPHTHAFLAVONE, Method: STANDARD PLATE) “inactive; negative”. The mutagenic call under setting [3] was “inactive; negative”; the mutagenic call (Test System: AMES SALMONELLA TYPHIMURIUM, Strain/Indicator: TA102, Metabolic Activation: RAT, LIVER, S-9, PHENOBARBITAL AND BETA-NAPHTHAFLAVONE, Method: STANDARD PLATE) is “inactive; negative”; the mutagenic call (Test System: CHINESE HAMSTER V-79, Strain/Indicator: V-79 (HPRT)/6-THIOGUANINE, Metabolic Activation: NONE) is “active; positive”; the mutagenic call (Test System: CHINESE HAMSTER V-79, Strain/Indicator: V-79 (HPRT)/6-THIOGUANINE, Metabolic Activation: R, L, S-9, PHENOBARBITAL AND BETA-NAPHTHOFLAVONE) was “inactive; negative”.
In the case of `CC/C(=C(/c1ccc(OCCN(C)C)cc1)c1ccc(OP(=O)(O)O)cc1)c1ccc(C(C)C)cc1`, the mutagenic call under setting [4] is “inactive; negative”; the mutagenic call (Test System: AMES SALMONELLA TYPHIMURIUM, Strain/Indicator: TA98, Metabolic Activation: RAT, LIVER, S-9, Method: PREINCUBATION) is “inactive; negative”; the mutagenic call under setting [5] was “inactive; negative”; the mutagenic call (Test System: AMES SALMONELLA TYPHIMURIUM, Strain/Indicator: TA100, Metabolic Activation: RAT, LIVER, S-9, Method: PREINCUBATION) was “inactive; negative”; the mutagenic call under setting [6] was “inactive; negative”; the mutagenic call (Test System: AMES SALMONELLA TYPHIMURIUM, Strain/Indicator: TA1535, Metabolic Activation: RAT, LIVER, S-9, Method: PREINCUBATION) was “inactive; negative”. In addition, the mutagenic call is, setting by setting: under setting [7], “inactive; negative”; (Test System: AMES SALMONELLA TYPHIMURIUM, Strain/Indicator: TA1537, Metabolic Activation: RAT, LIVER, S-9, Method: PREINCUBATION) “inactive; negative”; (Test System: E. COLI, Strain/Indicator: WP2 UVRA, Metabolic Activation: NONE, Method: PREINCUBATION) “inactive; negative”; (Test System: E. COLI, Strain/Indicator: WP2 UVRA, Metabolic Activation: RAT, LIVER, S-9, Method: PREINCUBATION) “inactive; negative”.
As to `Cn1c([N+](=O)[O-])cnc1C(O)c1cc(C(C)(C)C)cc(C(C)(C)C)c1O` (stereo not given), the mutagenic call by setting is: under setting [1], “inactive; negative”; (Test System: AMES SALMONELLA TYPHIMURIUM, Strain/Indicator: TA98, Metabolic Activation: RAT, LIVER, S-9, AROCLOR 1254, Method: STANDARD PLATE) “inactive; negative”; under setting [2], “inactive; negative”; (Test System: AMES SALMONELLA TYPHIMURIUM, Strain/Indicator: TA100, Metabolic Activation: RAT, LIVER, S-9, AROCLOR 1254, Method: STANDARD PLATE) “inactive; negative”; (Test System: AMES SALMONELLA TYPHIMURIUM, Strain/Indicator: TA1535, Metabolic Activation: NONE, Method: STANDARD PLATE) “inactive; negative”; (Test System: AMES SALMONELLA TYPHIMURIUM, Strain/Indicator: TA1535, Metabolic Activation: RAT, LIVER, S-9, AROCLOR 1254, Method: STANDARD PLATE) “inactive; negative”. Moreover, the mutagenic call (Test System: AMES SALMONELLA TYPHIMURIUM, Strain/Indicator: TA1537, Metabolic Activation: NONE, Method: STANDARD PLATE) is “inactive; negative”; the mutagenic call (Test System: AMES SALMONELLA TYPHIMURIUM, Strain/Indicator: TA1537, Metabolic Activation: RAT, LIVER, S-9, AROCLOR 1254, Method: STANDARD PLATE) was “inactive; negative”; the mutagenic call (Test System: AMES SALMONELLA TYPHIMURIUM, Strain/Indicator: TA1538, Metabolic Activation: NONE, Method: STANDARD PLATE) is “inactive; negative”; the mutagenic call (Test System: AMES SALMONELLA TYPHIMURIUM, Strain/Indicator: TA1538, Metabolic Activation: RAT, LIVER, S-9, AROCLOR 1254, Method: STANDARD PLATE) was “inactive; negative”.
As to `Nc1ccc(C=O)cc1`, the mutagenic call runs as follows: under setting [4], “inactive; negative”; (Test System: AMES SALMONELLA TYPHIMURIUM, Strain/Indicator: TA98, Metabolic Activation: RAT LIVER S-9, PHENOBARBITAL AND BETA-NAPHTHOFLAVONE (30%), Method: PREINCUBATION) “inactive; negative”; (Test System: AMES SALMONELLA TYPHIMURIUM, Strain/Indicator: TA98, Metabolic Activation: RAT LIVER S-9, PHENOBARBITAL AND BETA-NAPHTHOFLAVONE, Method: PREINCUBATION) “inactive; negative”; under setting [5], “inactive; negative”; (Test System: AMES SALMONELLA TYPHIMURIUM, Strain/Indicator: TA100, Metabolic Activation: RAT LIVER S-9, PHENOBARBITAL AND BETA-NAPHTHOFLAVONE (30%), Method: PREINCUBATION) “inactive; negative”; (Test System: AMES SALMONELLA TYPHIMURIUM, Strain/Indicator: TA100, Metabolic Activation: RAT LIVER S-9, PHENOBARBITAL AND BETA-NAPHTHOFLAVONE, Method: PREINCUBATION) “inactive; negative”. Moreover, the mutagenic call under setting [6] was “inactive; negative”; the mutagenic call (Test System: AMES SALMONELLA TYPHIMURIUM, Strain/Indicator: TA1535, Metabolic Activation: RAT LIVER S-9, PHENOBARBITAL AND BETA-NAPHTHOFLAVONE (30%), Method: PREINCUBATION) is “inactive; negative”; the mutagenic call (Test System: AMES SALMONELLA TYPHIMURIUM, Strain/Indicator: TA1535, Metabolic Activation: RAT LIVER S-9, PHENOBARBITAL AND BETA-NAPHTHOFLAVONE, Method: PREINCUBATION) is “inactive; negative”; the mutagenic call under setting [7] is “inactive; negative”; the mutagenic call (Test System: AMES SALMONELLA TYPHIMURIUM, Strain/Indicator: TA1537, Metabolic Activation: RAT LIVER S-9, PHENOBARBITAL AND BETA-NAPHTHOFLAVONE (30%), Method: PREINCUBATION) was “inactive; negative”; the mutagenic call (Test System: AMES SALMONELLA TYPHIMURIUM, Strain/Indicator: TA1537, Metabolic Activation: RAT LIVER S-9, PHENOBARBITAL AND BETA-NAPHTHOFLAVONE, Method: PREINCUBATION) was “inactive; negative”. Besides, the mutagenic call is “inactive; negative” (Test System: E.COLI, Strain/Indicator: WP2UVRA, Metabolic Activation: NONE, Method: PREINCUBATION); “inactive; negative” (Test System: E.COLI, Strain/Indicator: WP2UVRA, Metabolic Activation: RAT LIVER S-9, PHENOBARBITAL AND BETA-NAPHTHOFLAVONE (30%), Method: PREINCUBATION); “inactive; negative” (Test System: E.COLI, Strain/Indicator: WP2UVRA, Metabolic Activation: RAT LIVER S-9, PHENOBARBITAL AND BETA-NAPHTHOFLAVONE, Method: PREINCUBATION).
As to `COC(=O)CCl`, the mutagenic call runs as follows: under setting [3], “inactive; negative”; (Test System: AMES SALMONELLA TYPHIMURIUM, Strain/Indicator: TA2638, Metabolic Activation: NONE, Method: STANDARD PLATE) “inactive; negative”; (Test System: E. COLI, Strain/Indicator: WP2 (PKM101), Metabolic Activation: NONE, Method: STANDARD PLATE) “inactive; negative”; (Test System: E. COLI, Strain/Indicator: WP2 UVRA (PKM101), Metabolic Activation: NONE, Method: STANDARD PLATE) “inactive; negative”.
